Row | melting point [°C] | SMILES
1 | 264 | Cn1ncnc1COc1nn2c(-c3cnccn3)nnc2cc1-c1ccccc1 [Example 2, 6-(2-Methyl-2H-1,2,4-triazol-3-ylmethoxy)-7-phenyl-3-(pyrazin-2-yl)-1,2,4-triazolo[4,3-b]pyridazine]
2 | 255 | c1ccc(-c2cc3nnc(-c4cnccn4)n3nc2OCc2nc[nH]n2)cc1 [Example 3, 7-Phenyl-3-(pyrazin-2-yl)-6-(1H-1,2,4-triazol-3-ylmethoxy)-1,2,4-triazolo[4,3-b]pyridazine]
3 | 221 to 223 | Cc1cc(-c2nnc3cc(C(C)(C)C)c(OCc4ncn(C)n4)nn23)no1 [Example 6, 7-t-Butyl-3-(5-methylisoxazol-3-yl)-6-(1-methyl-1.2 4-triazol-3-yl)methyloxy-1,2,4-triazolo[4,3-b]pyridazine]
4 | 219 to 221 | Cc1cc(-c2nnc3cc(C(C)(C)C)c(OCc4cn(C)nn4)nn23)no1 [Example 7, 7-t-Butyl-3-(5-methylisoxazol-3-yl)-6-(1-methyl-1.2.3-triazol-4-yl)methyloxy-1,2,4-triazolo[4,3-b]pyridazine]

Reference: patent US6444666B1, “Triazolopyridazine Derivatives for treating anxiety and enhancing cognition” (Merck Sharp & Dohme Ltd., priority 1997, dated 2002)
